Results as given in US7220758B2, “Ether substituted imidazopyridines” (3M Innovative Properties Company, priority 2002, dated 2007).
Counter-ions that a name gives are not always drawn.

SMILES | melting point
CCCc1nc2c(N)nc(C)c(C)c2n1CCCCCS(=O)(=O)c1ccc(C(F)(F)F)cc1 | 172 to 173.5 °C
CCCc1nc2c(N)nc(C)c(C)c2n1CCCCCS(=O)(=O)c1ccccc1 | 134 to 136 °C
CCCc1nc2c(N)nc(C)c(C)c2n1CCCCCS(=O)(=O)c1ccc(OC)cc1 | 130.5 to 132 °C
CCCc1nc2c(N)nc(C)c(C)c2n1CCCS(=O)(=O)c1ccc(Cl)cc1 | 186.5 to 188 °C
CCCc1nc2c(N)nc(C)c(C)c2n1CCCS(=O)(=O)c1ccc(C(=O)O)cc1 (as salt: hydrochloride) [Example 100, 4-[3-(4-Amino-6,7-dimethyl-2-propyl-1II-imidazo[4,5-c]pyridin-1-yl)propane-1-sulfonyl]benzoic acid hydrochloride] | > 250 °C
CCOCc1nc2c(N)nc(C)c(C)c2n1CCOCCCc1ccccc1 (as salt: hydrochloride) [Example 123, 2-Ethoxymethyl-6,7-dimethyl-1-[2-(3-phenylpropoxy)ethyl]-1H-imidazo[4,5-c]pyridin-4-amine hydrochloride] | 128 to 130 °C
Cc1nc(N)c2nc(C)n(CCOCCN)c2c1C (as salt: salt) [Example 14, 1-[2-(2-Aminoethoxy)ethyl]-2,6,7-trimethyl-1H-imidazo[4,5-c]pyridin-4-amine] | 130 to 133 °C
Cc1nc(N)c2nc(C)n(CCOCCNC(=O)N3CCOCC3)c2c1C (as salt: salt) [Example 15, N-{2-[2-(4-Amino-2,6,7-trimethyl-1H-imidazo[4,5-c]pyridin-1-yl)ethoxy]ethyl}morpholine-4-carboxamide] | 205 to 207 °C
Cc1nc(N)c2nc(C)n(CCOCCNC(=O)C(C)C)c2c1C (as salt: salt) [Example 16, N-{2-[2-(4-Amino-2,6,7-trimethyl-1H-imidazo[4,5-c]pyridin-1-yl)ethoxy]ethyl}-2-methylpropanamide] | 179.5 to 182 °C
Cc1nc(N)c2ncn(CCOc3ccccc3)c2c1C [Example 1, 6,7-Dimethyl-1-(2-phenoxyethyl)-1H-imidazo[4,5-c]pyridin-4-amine] | 197 to 199 °C
Cc1nc(N)c2nc(C)n(CCOc3ccccc3)c2c1C [Example 2, 2,6,7-Trimethyl-1-(2-phenoxyethyl)-1H-imidazo[4,5-c]pyridin-4-amine] | 176 to 177 °C
CCCCc1nc2c(N)nc(C)c(C)c2n1CCOc1ccccc1 [Example 3, 2-Butyl-6,7-dimethyl-1-(2-phenoxyethyl)-1H-imidazo[4,5-c]pyridin-4-amine] | 130 to 132 °C
CCOCc1nc2c(N)nc(C)c(C)c2n1CCOCc1ccccc1 [Example 4, 1-[2-(Benzyloxy)ethyl]-2-(ethoxymethyl)-6,7-dimethyl-1H-imidazo[4,5-c]pyridin-4-amine] | 107.3 to 108.2 °C
Cc1nc(N)c2nc(C)n(CCOCc3ccccc3)c2c1C [Example 5, 1-[2-(Benzyloxy)ethyl]-2,6,7-trimethyl-1H-imidazo[4,5-c]pyridin-4-amine] | 136.8 to 137.5 °C
CCCc1nc2c(N)nc(C)c(C)c2n1CCOCc1ccccc1 [Example 6, 1-[2-(Benzyloxy)ethyl]-6,7-dimethyl-2-propyl-1H-imidazo[4,5-c]pyridin-4-amine] | 99.5 to 100 °C
Cc1nc(N)c2nc(C)n(CCOCC#Cc3ccccc3)c2c1C [Example 7, 2,6,7-Trimethyl-1-{2-[(3-phenylprop-2-ynyl)oxy]ethyl}-1H-imidazo[4,5-c]pyridin-4-amine] | 186.8 to 187.5 °C
Cc1nc(N)c2nc(C)n(CCOCCCc3ccccc3)c2c1C [Example 8, 2,6,7-Trimethyl-1-[2-(3-phenylpropoxy)ethyl]-1H-imidazo[4,5-c]pyridin-4-amine] | 118.1 to 119 °C
Cc1nc(N)c2nc(C)n(CCOC/C=C/c3ccccc3)c2c1C [Example 9, 2,6,7-Trimethyl-1-(2-{[(2E)-3-phenylprop-2-enyl]oxy}ethyl)-1H-imidazo[4,5-c]pyridin-4-amine] | 143.7 to 144.8 °C
Cc1nc(N)c2nc(C)n(CCOCCCc3cccnc3)c2c1C [Example 10, 2,6,7-Trimethyl-1-[2-(3-pyridin-3-ylpropoxy)ethyl]-1H-imidazo[4,5-c]pyridin-4-amine] | 108.6 to 109.5 °C
CCOCc1nc2c(N)nc(C)c(C)c2n1CCOCCCc1cccnc1 [Example 11, 2-(Ethoxymethyl)-6,7-dimethyl-1-[2-(3-pyridin-3-ylpropoxy)ethyl]-1H-imidazo[4,5-c]pyridin-4-amine] | 78 to 78.5 °C
CSCCCCCn1c(C)nc2c(N)nc(C)c(C)c21 [Example 12, 2,6,7-Trimethyl-1-[5-(methylthio)pentyl]-1H-imidazo[4,5-c]pyridin-4-amine] | 121 to 122 °C

SMILES | melting point
Cc1nc(N)c2nc(C)n(CCCCCSc3ccccc3)c2c1C [Example 13, 2,6,7-Trimethyl-1-[5-(phenylthio)pentyl]-1H-imidazo[4,5-c]pyridin-4-amine] | 181 to 183 °C
Cc1nc(N)c2nc(C)n(CCCCCS(C)(=O)=O)c2c1C [Example 78, 1-[5-(Methanesulfonyl)pentyl]-2,6,7-trimethyl-1H-imidazo[4,5-c]pyridin-4-amine] | 199 to 200 °C
CCOCc1nc2c(N)nc(C)cc2n1CCOCc1ccccc1 [Example 80, 1-[2-(Benzyloxy)ethyl]-2-(ethoxymethyl)-6-methyl-1H-imidazo[4,5-c]pyridin-4-amine] | 127 to 128 °C
CCOCc1nc2c(N)nc(C)c(C)c2n1CCOCCCc1nccs1 [Example 82, 2-(Ethoxymethyl)-6,7-dimethyl-1-{2-[3-(1,3-thiazol-2-yl)propoxy]ethyl}-1H-imidazo[4,5-c]pyridin-4-amine] | 91 to 92 °C
Cc1nc(N)c2ncn(CCOCc3ccncc3)c2c1C [Example 84, 6,7-Dimethyl-1-[2-(pyridin-4-ylmethoxy)ethyl]-1H-imidazo[4,5-c]pyridin-4-amine] | 195 to 196 °C
CCCc1nc2c(N)nc(C)c(C)c2n1CCCCCS(=O)(=O)c1ccc(Cl)cc1 [Example 85, 1-[5-(4-Chlorobenzenesulfonyl)pentyl]-6,7-dimethyl-2-propyl-1H-imidazo[4,5-c]pyridin-4-amine] | 147 to 149 °C
CCCc1nc2c(N)nc(C)c(C)c2n1CCCCCS(=O)(=O)c1ccccn1 [Example 87, 6,7-Dimethyl-2-propyl-1-[5-(pyridine-2-sulfonyl)pentyl]-1H-imidazo[4,5-c]pyridin-4-amine] | 143 to 144.5 °C
CCCc1nc2c(N)nc(C)c(C)c2n1CCCCS(C)(=O)=O [Example 89, 1-[4-(Methanesulfonyl)butyl]-6,7-dimethyl-2-propyl-1H-imidazo[4,5-c]pyridin-4-amine] | 152 to 153 °C
CCCc1nc2c(N)nc(C)c(C)c2n1CCCS(C)(=O)=O [Example 90, 1-[3-(Methanesulfonyl)propyl]-6,7-dimethyl-2-propyl-1H-imidazo[4,5-c]pyridin-4-amine] | 153.5 to 155 °C
CCCc1nc2c(N)nc(C)c(C)c2n1CCCCCCS(C)(=O)=O [Example 91, 1-[6-(Methanesulfonyl)hexyl]-6,7-dimethyl-2-propyl-1H-imidazo[4,5-c]pyridin-4-amine] | 157 to 158 °C
CCCc1nc2c(N)nc(C)c(C)c2n1CCCCCS(=O)(=O)c1ccc(F)cc1 [Example 92, 1-[5-(4-Fluorobenzenesulfonyl)pentyl]-6,7-dimethyl-2-propyl-1H-imidazo[4,5-c]pyridin-4-amine] | 130 to 132 °C
CCCc1nc2c(N)nc(C)c(C)c2n1CCCCCS(=O)(=O)c1ccc(F)cc1F [Example 93, 1-[5-(2,4-Difluorobenzenesulfonyl)pentyl]-6,7-dimethyl-2-propyl-1H-imidazo[4,5-c]pyridin-4-amine] | 130 to 132 °C
CCCc1nc2c(N)nc(C)c(C)c2n1CCCCCS(=O)(=O)c1ccc(Cl)cc1Cl [Example 95, 1-[5-(2,4-Dichlorobenzenesulfonyl)pentyl]-6,7-dimethyl-2-propyl-1H-imidazo[4,5-c]pyridin-4-amine] | 130 to 131.5 °C
CCCc1nc2c(N)nc(C)c(C)c2n1CCCCCS(C)(=O)=O [Example 96, 1-[5-(Methanesulfonyl)pentyl]-6,7-dimethyl-2-propyl-1H-imidazo[4,5-c]pyridin-4-amine] | 145 to 146 °C
CCCc1nc2c(N)nc(C)c(C)c2n1CCCS(=O)(=O)c1ccccn1 [Example 98, 6,7-Dimethyl-2-propyl-1-[3-(pyridine-2-sulfonyl)propyl]-1H-imidazo[4,5-c]pyridin-4-amine] | 172 to 173.5 °C
CCCc1nc2c(N)nc(C)c(C)c2n1CCCS(=O)(=O)c1ccc(C(=O)OCC)cc1 [Example 99, 4-[3-(4-Amino-6,7-dimethyl-2-propyl-1H-imidazo[4,5-c]pyridin-1-yl)propane-1-sulfonyl]benzoic acid ethyl ester] | 169 to 171 °C
CCCc1nc2c(N)nc(C)c(C)c2n1CCCS(=O)(=O)c1ccc(C(=O)N2CCOCC2)cc1 [Example 101, {4-[3-(4-Amino-6,7-dimethyl-2-propyl-1H-imidazo[4,5-c]pyridin-1-yl)propane-1-sulfonyl]phenyl}morpholin-4-ylmethanone] | 224 to 226 °C
CCc1nc2c(N)nc(C)c(C)c2n1CCOCCNS(C)(=O)=O [Example 102, N-{2-[2-(4-Amino-2-ethyl-6,7-dimethyl-1H-imidazo[4,5-c]pyridin-1-yl)ethoxy]ethyl}methanesulfonamide] | 145 to 147 °C
CCc1nc2c(N)nc(C)c(C)c2n1CCOCCNC(=O)N1CCOCC1 [Example 103, N-{2-[2-(4-Amino-2-ethyl-6,7-dimethyl-1H-imidazo[4,5-c]pyridin-1-yl)ethoxy]ethyl}morpholine-4-carboxamide] | 182 to 184 °C
CCc1nc2c(N)nc(C)c(C)c2n1CCOCCNC(=O)C1CCCCC1 [Example 104, N-{2-[2-(4-Amino-2-ethyl-6,7-dimethyl-1H-imidazo[4,5-c]pyridin-1-yl)ethoxy]ethyl}cyclohexanecarboxamide] | 170 to 172 °C
CCc1nc2c(N)nc(C)c(C)c2n1CCOCCNC(=O)NC1CCCCC1 [Example 105] | 187 to 189 °C
